Assay results reported in patent publication US5028715A, “Radioprotective agents and their method of manufacture” (priority 1989, dated 1991).
Read-outs that look alike come from different tables or passages of the source.

Key:
Assay type in all cases: in vivo
test mice [1] = assay: Radioprotective activity in mice against LD100 of γ-radiation (1000 RAD) (Table II); details: for toxicity (in words): at the levels used in this test; for protection against LD100 dose of irradiation (in words): dose level near the LD50 (50 mg/kg), all the mice survived
[2] = Acute toxicity in mice (Table I); details: mouse, in vivo; for survival: read-out: Survivors (%); for LD50: mice, ip
Experimental: (§1) Radioprotective Agents A, B, C, and D were tested for acute toxicity and radioprotective activity using test mice at various dosage levels against LD100 of γ-radiation. The agents were administered interperitoneally (ip).

test mice [3] = assay: Acute toxicity in mice (Table I); details: vehicle H2O
Experimental: as §1

[4] = 75 mg/kg ip, 30 min before 1000 RAD
[5] = 150 mg/kg ip, 30 min before 1000 RAD
[6] = 300 mg/kg ip, 30 min before 1000 RAD
[7] = 300 mg/kg po, 30 min before 1000 RAD
[8] = 600 mg/kg po, 30 min before 1000 RAD
[9] = 1200 mg/kg po, 30 min before 1000 RAD
[10] = 55.1 mg/kg ip, 0 min before 1000 RAD
[11] = 110.3 mg/kg ip, 0 min before 1000 RAD
[12] = 220.6 mg/kg ip, 0 min before 1000 RAD
[13] = 441 mg/kg ip, 0 min before 1000 RAD
[14] = 18.75 mg/kg ip, 30 min before 1000 RAD
[15] = 37.5 mg/kg ip, 30 min before 1000 RAD
[16] = 54.3 mg/kg ip, 30 min before 1000 RAD
[17] = 109 mg/kg ip, 30 min before 1000 RAD
[18] = 217 mg/kg ip, 30 min before 1000 RAD
[19] = 435 mg/kg ip, 30 min before 1000 RAD

| SMILES | Drug Related Lethality (test mice [1]; [4]) | Survivors (%) (test mice [1]; [4]) | toxicity (in words) (test mice [1]) | survival ([2]; 75 mg/kg ip, vehicle H2O) [%] | survival ([2]; 150 mg/kg ip, vehicle H2O) [%] | survival ([2]; 300 mg/kg ip, vehicle H2O) [%] | survival ([2]; 600 mg/kg ip, vehicle H2O) [%] | Deaths (test mice [3]; 75 mg/kg ip) | Deaths (test mice [3]; 150 mg/kg ip) | Deaths (test mice [3]; 300 mg/kg ip) | Deaths (test mice [3]; 600 mg/kg ip) | protection against LD100 dose of irradiation (in words) (test mice [1]) | survival ([2]; 37.5 mg/kg ip, vehicle H2O) [%] | LD50 [2] [mg/kg] | also measured |
| --- | --- | --- | --- | --- | --- | --- | --- | --- | --- | --- | --- | --- | --- | --- | --- |
| NCCCN1CCSC1c1ccc([N+](=O)[O-])cc1 (stereo not drawn) [A] | 0/10 | 20 | toxic | 100 | 100 | 60 | 0 | 0/5 | 0/5 | 2/5 | 5/5 |  |  |  | Drug Related Lethality (test mice [1]; [5]): 0/10; Survivors (%) (test mice [1]; [5]): 30%; Drug Related Lethality (test mice [1]; [6]): 5/10; Survivors (%) (test mice [1]; [6]): 40%; Drug Related Lethality (test mice [1]; [7]): 0/10; Survivors (%) (test mice [1]; [7]): 0%; Drug Related Lethality (test mice [1]; [8]): 0/10; Survivors (%) (test mice [1]; [8]): 0%; Drug Related Lethality (test mice [1]; [9]): 7/10; Survivors (%) (test mice [1]; [9]): 0% |
| NCCCN1CCSC1c1ccc2c(c1)OCO2 (stereo not drawn) [D] |  |  |  | 0 | 0 | 0 |  | 5/5 | 5/5 | 5/5 |  | complete protection | 100 | 50 | Drug Related Lethality (test mice [1]; [10]): 0/5; Survivors (%) (test mice [1]; [10]): 100%; Drug Related Lethality (test mice [1]; [11]): 5/5; Survivors (%) (test mice [1]; [11]): 0%; Drug Related Lethality (test mice [1]; [12]): 5/5; Survivors (%) (test mice [1]; [12]): 0%; Drug Related Lethality (test mice [1]; [13]): 5/5; Survivors (%) (test mice [1]; [13]): 0%; Deaths (test mice [3]; 37.5 mg/kg ip): 0/5 |
| COc1ccc(C2SCCN2CCCN)cc1 (stereo not drawn) [B] | 0/10 | 20 | toxic | 100 | 20 | 0 | 0 | 0/5 | 4/5 | 5/5 | 5/5 |  |  |  | Drug Related Lethality (test mice [1]; [14]): 0/10; Survivors (%) (test mice [1]; [14]): 0%; Drug Related Lethality (test mice [1]; [15]): 0/10; Survivors (%) (test mice [1]; [15]): 0% |
| COc1ccc(C2SCCN2CCCN)cc1OC (stereo not drawn) [C] |  |  |  | 0 | 0 | 0 |  | 5/5 | 5/5 | 5/5 |  | complete protection | 100 | 50 | Drug Related Lethality (test mice [1]; [16]): 0/5; Survivors (%) (test mice [1]; [16]): 100%; Drug Related Lethality (test mice [1]; [17]): 5/5; Survivors (%) (test mice [1]; [17]): 0%; Drug Related Lethality (test mice [1]; [18]): 5/5; Survivors (%) (test mice [1]; [18]): 0%; Drug Related Lethality (test mice [1]; [19]): 5/5; Survivors (%) (test mice [1]; [19]): 0%; mortality ([2]; 37.5 mg/kg ip, vehicle H2O, read-out: Deaths): 50% |
